We go through 14 compounds from ChEMBL document CHEMBL5038624, “Construction and activity evaluation of novel dual-target (SE/CYP51) anti-fungal agents containing amide naphthyl structure” (Eur J Med Chem, 2022).

≈ marks a conversion by molar mass, not a printed value.

For one assay, the system named is Pichia kudriavzevii. Kind of assay: Antifungal activity against Candida krusei ATCC 6258 assessed as reduction in fungal growth incubated for 72 hrs by CLSI protocol based broth microdilution method. The class given is functional.
For `O=C(/C=C/c1cccc2ccccc12)NC(C(=O)NCc1ccncc1)c1ccccc1` (centres undefined), the MIC50 (as a rule, the lowest concentration that inhibits either 50% of growth or 50% of the strains tested, depending on the study) worked out at 4 µg/mL (≈ 9.49 µM).

Regarding `O=C(NC(Cn1ccnc1)c1ccccc1)c1ccc2ccccc2c1` (centres undefined), the MIC50 came to 0.5 µg/mL (≈ 1.46 µM).

Take `O=C(NC(Cn1cncn1)C(=O)c1ccccc1)c1ccc2ccccc2c1` (centres undefined): the MIC50 was 1 µg/mL (≈ 2.7 µM).

Regarding `O=C(/C=C/c1cccc2ccccc12)NC(C(=O)Nc1ccncc1)c1ccccc1` (centres undefined), the MIC50 stood at 0.5 µg/mL (≈ 1.23 µM).

As for `O=C(NC(Cn1cncn1)c1ccccc1)c1cccc2ccccc12` (centres undefined), the MIC50 stood at 0.5 µg/mL (≈ 1.46 µM).

For the compound `O=C(/C=C/c1ccc2ccccc2c1)NC(C(=O)Nc1ccncc1)c1ccccc1` (centres undefined), the MIC50 amounted to 0.5 µg/mL (≈ 1.23 µM).

Consider `O=C(/C=C/c1cccc2ccccc12)NC(Cn1ccnc1)C(=O)c1ccccc1` (centres undefined), for which the MIC50 worked out at 1 µg/mL (≈ 2.53 µM).

With `O=C(/C=C/c1ccc2ccccc2c1)NC(C(=O)NCc1cccnc1)c1ccccc1` (centres undefined), the MIC50 was 1 µg/mL (≈ 2.37 µM).

Turning to `O=C(NC(Cn1cncn1)C(=O)c1ccccc1)c1cccc2ccccc12` (centres undefined), the MIC50 turned out to be 0.5 µg/mL (≈ 1.35 µM).

For `O=C(/C=C/c1cccc2ccccc12)NC(C(=O)NCc1cccnc1)c1ccccc1` (centres undefined), the MIC50 stood at 2 µg/mL (≈ 4.74 µM).

In the next assay the test system is Aspergillus fumigatus. Kind of assay: Antifungal activity against Aspergillus fumigatus KM8001 assessed as reduction in fungal growth incubated for 72 hrs by CLSI protocol based broth microdilution method. The class given is functional.
As for `O=C(/C=C/c1cccc2ccccc12)NC(C(=O)NCc1ccncc1)c1ccccc1` (centres undefined), the MIC50 was above 8 µg/mL.

Consider `O=C(NC(Cn1ccnc1)c1ccccc1)c1ccc2ccccc2c1` (centres undefined), for which the MIC50 was above 8 µg/mL.

Consider `O=C(NC(Cn1cncn1)C(=O)c1ccccc1)c1ccc2ccccc2c1` (centres undefined), for which the MIC50 amounted to 4 µg/mL (≈ 10.8 µM).

Turning to `O=C(/C=C/c1cccc2ccccc12)NC(C(=O)Nc1ccncc1)c1ccccc1` (centres undefined), the MIC50 was above 8 µg/mL.

For the compound `O=C(NC(Cn1cncn1)c1ccccc1)c1cccc2ccccc12` (centres undefined), the MIC50 was above 8 µg/mL.

On to `O=C(/C=C/c1ccc2ccccc2c1)NC(C(=O)Nc1ccncc1)c1ccccc1` (centres undefined), for which the MIC50 amounted to 2 µg/mL (≈ 4.91 µM).

For `O=C(/C=C/c1cccc2ccccc12)NC(Cn1ccnc1)C(=O)c1ccccc1` (centres undefined), the MIC50 is above 8 µg/mL.

In the case of `O=C(/C=C/c1ccc2ccccc2c1)NC(C(=O)NCc1cccnc1)c1ccccc1` (centres undefined), the MIC50 was above 8 µg/mL.

For `O=C(NC(Cn1cncn1)C(=O)c1ccccc1)c1cccc2ccccc12` (centres undefined), the MIC50 was above 8 µg/mL.

For `O=C(/C=C/c1cccc2ccccc12)NC(C(=O)NCc1cccnc1)c1ccccc1` (centres undefined), the MIC50 was above 8 µg/mL.

A further assay has as its system Candida albicans. In words: Antifungal activity against Candida albicans SC5314 assessed as reduction in fungal growth incubated for 72 hrs by CLSI protocol based broth microdilution method. The class given is functional. For orientation: Broth dilution looks for growth in wells or tubes with falling amounts of substance.
Turning to `NC(=O)/C=C/c1cccc2ccccc12`, the MIC50 is 32 µg/mL (≈ 162 µM).

`O=C(/C=C/c1cccc2ccccc12)NC(C(=O)NCc1ccncc1)c1ccccc1` (centres undefined): the MIC50 stood at 2 µg/mL (≈ 4.74 µM).

Consider `O=C(NC(Cn1ccnc1)c1ccccc1)c1ccc2ccccc2c1` (centres undefined), for which the MIC50 worked out at 0.5 µg/mL (≈ 1.46 µM).

As to `O=C(NC(Cn1cncn1)C(=O)c1ccccc1)c1ccc2ccccc2c1` (centres undefined), the MIC50 was 0.25 µg/mL (≈ 0.675 µM).

As to `O=C(/C=C/c1cccc2ccccc12)NC(C(=O)Nc1ccncc1)c1ccccc1` (centres undefined), the MIC50 came out at 0.5 µg/mL (≈ 1.23 µM).

Turning to `O=C(NC(Cn1cncn1)c1ccccc1)c1cccc2ccccc12` (centres undefined), the MIC50 came out at 0.25 µg/mL (≈ 0.73 µM).

Take `O=C(/C=C/c1cccc2ccccc12)NCC(=O)c1ccccc1`: the MIC50 was 8 µg/mL (≈ 25.4 µM).

`c1ccc2ccccc2c1` [NAPHTHALENE]: the MIC50 is above 64 µg/mL.

In the case of `O=C(/C=C/c1cccc2ccccc12)NCc1ccccc1`, the MIC50 worked out at 8 µg/mL (≈ 27.8 µM).

Take `O=C(/C=C/c1ccc2ccccc2c1)NC(C(=O)Nc1ccncc1)c1ccccc1` (centres undefined): the MIC50 is 0.5 µg/mL (≈ 1.23 µM).

Consider `O=C(/C=C/c1cccc2ccccc12)NC(Cn1ccnc1)C(=O)c1ccccc1` (centres undefined), for which the MIC50 came out at 0.25 µg/mL (≈ 0.632 µM).

Regarding `O=C(/C=C/c1ccc2ccccc2c1)NC(C(=O)NCc1cccnc1)c1ccccc1` (centres undefined), the MIC50 came out at 2 µg/mL (≈ 4.74 µM).

For `O=C(NC(Cn1cncn1)C(=O)c1ccccc1)c1cccc2ccccc12` (centres undefined), the MIC50 turned out to be 0.5 µg/mL (≈ 1.35 µM).

For the compound `O=C(/C=C/c1cccc2ccccc12)NC(C(=O)NCc1cccnc1)c1ccccc1` (centres undefined), the MIC50 was determined as 4 µg/mL (≈ 9.49 µM).

For a further assay, the system named is Nakaseomyces glabratus. In words: Antifungal activity against Candida glabrata ATCC 0001 assessed as reduction in fungal growth incubated for 72 hrs by CLSI protocol based broth microdilution method. The format is functional.
On to `O=C(/C=C/c1cccc2ccccc12)NC(C(=O)NCc1ccncc1)c1ccccc1` (centres undefined), for which the MIC50 was 0.5 µg/mL (≈ 1.19 µM).

Turning to `O=C(NC(Cn1ccnc1)c1ccccc1)c1ccc2ccccc2c1` (centres undefined), the MIC50 came to 0.25 µg/mL (≈ 0.732 µM).

As for `O=C(NC(Cn1cncn1)C(=O)c1ccccc1)c1ccc2ccccc2c1` (centres undefined), the MIC50 came to 0.5 µg/mL (≈ 1.35 µM).

Take `O=C(/C=C/c1cccc2ccccc12)NC(C(=O)Nc1ccncc1)c1ccccc1` (centres undefined): the MIC50 came to 0.25 µg/mL (≈ 0.614 µM).

For `O=C(NC(Cn1cncn1)c1ccccc1)c1cccc2ccccc12` (centres undefined), the MIC50 came to 2 µg/mL (≈ 5.84 µM).

As to `O=C(/C=C/c1ccc2ccccc2c1)NC(C(=O)Nc1ccncc1)c1ccccc1` (centres undefined), the MIC50 amounted to 0.5 µg/mL (≈ 1.23 µM).

With `O=C(/C=C/c1cccc2ccccc12)NC(Cn1ccnc1)C(=O)c1ccccc1` (centres undefined), the MIC50 is 0.5 µg/mL (≈ 1.26 µM).

For the compound `O=C(/C=C/c1ccc2ccccc2c1)NC(C(=O)NCc1cccnc1)c1ccccc1` (centres undefined), the MIC50 came to 0.5 µg/mL (≈ 1.19 µM).

`O=C(NC(Cn1cncn1)C(=O)c1ccccc1)c1cccc2ccccc12` (centres undefined): the MIC50 came to 0.5 µg/mL (≈ 1.35 µM).

For `O=C(/C=C/c1cccc2ccccc12)NC(C(=O)NCc1cccnc1)c1ccccc1` (centres undefined), the MIC50 came out at 2 µg/mL (≈ 4.74 µM).

The subject of the next assay is Candida tropicalis. Kind of assay: Antifungal activity against Candida tropicalis ATCC 1369 assessed as reduction in fungal growth incubated for 72 hrs by CLSI protocol based broth microdilution method. The class given is functional.
Take `O=C(/C=C/c1cccc2ccccc12)NC(C(=O)NCc1ccncc1)c1ccccc1` (centres undefined): the MIC50 is 2 µg/mL (≈ 4.74 µM).

Take `O=C(NC(Cn1ccnc1)c1ccccc1)c1ccc2ccccc2c1` (centres undefined): the MIC50 stood at 0.5 µg/mL (≈ 1.46 µM).

Turning to `O=C(NC(Cn1cncn1)C(=O)c1ccccc1)c1ccc2ccccc2c1` (centres undefined), the MIC50 came to 0.25 µg/mL (≈ 0.675 µM).

For `O=C(/C=C/c1cccc2ccccc12)NC(C(=O)Nc1ccncc1)c1ccccc1` (centres undefined), the MIC50 turned out to be 0.5 µg/mL (≈ 1.23 µM).

For `O=C(NC(Cn1cncn1)c1ccccc1)c1cccc2ccccc12` (centres undefined), the MIC50 was 0.125 µg/mL (≈ 0.365 µM).

`O=C(/C=C/c1ccc2ccccc2c1)NC(C(=O)Nc1ccncc1)c1ccccc1` (centres undefined): the MIC50 worked out at 0.5 µg/mL (≈ 1.23 µM).

On to `O=C(/C=C/c1cccc2ccccc12)NC(Cn1ccnc1)C(=O)c1ccccc1` (centres undefined), for which the MIC50 turned out to be 0.5 µg/mL (≈ 1.26 µM).

For the compound `O=C(/C=C/c1ccc2ccccc2c1)NC(C(=O)NCc1cccnc1)c1ccccc1` (centres undefined), the MIC50 is 2 µg/mL (≈ 4.74 µM).

For the compound `O=C(NC(Cn1cncn1)C(=O)c1ccccc1)c1cccc2ccccc12` (centres undefined), the MIC50 is 0.25 µg/mL (≈ 0.675 µM).

As for `O=C(/C=C/c1cccc2ccccc12)NC(C(=O)NCc1cccnc1)c1ccccc1` (centres undefined), the MIC50 amounted to 0.5 µg/mL (≈ 1.19 µM).
